Laboratory results as given in publication PMC9506414, “Novel 2,6,9-Trisubstituted Purines as Potent CDK Inhibitors Alleviating Trastuzumab-Resistance of HER2-Positive Breast Cancers” (Pharmaceuticals, 2022).

How the values were obtained:
Test in all cases: Kinome-wide inhibition profiling
Format in all cases: biochemical
ACK1 = biological target: T1, ACK1 (Homo sapiens, UniProt Q07912)
T1 construct: purchased Reaction Biology Corp
Method: (§1) In vitro CDK12/cyclinK assays for all compounds and in vitro kinome-wide inhibition profiling of 30d at 10 μM were performed by a CRO company (Reaction Biology Corp., San Diego, CA, USA).

ACVR1 = biological target: T2, ACVR1 (Homo sapiens, UniProt Q04771)
T2 construct: purchased Reaction Biology Corp
Method: as §1

BMPR1A = biological target: T3, BMPR1A (Homo sapiens, UniProt P36894)
T3 construct: purchased Reaction Biology Corp
Method: as §1

BTK = biological target: T4, BTK (Homo sapiens, UniProt Q06187)
T4 construct: purchased Reaction Biology Corp
Method: as §1

CDK1/cyclinB = biological target: T5, CDK1/cyclinB (Homo sapiens, UniProt P06493)
T5 construct: purchased Reaction Biology Corp
Method: as §1

CHEK2 = biological target: T6, CHEK2 (Homo sapiens, UniProt O96017)
T6 construct: purchased Reaction Biology Corp
Method: as §1

CLK3 = biological target: T7, CLK3 (Homo sapiens, UniProt P49761)
T7 construct: purchased Reaction Biology Corp
Method: as §1

CSK = biological target: T8, CSK (Homo sapiens, UniProt P41240)
T8 construct: purchased Reaction Biology Corp
Method: as §1

CSNK2A1 = biological target: T9, CSNK2A1 (Homo sapiens, UniProt P68400)
T9 construct: purchased Reaction Biology Corp
Method: as §1

DDR1 = biological target: T10, DDR1 (Homo sapiens, UniProt Q08345)
T10 construct: purchased Reaction Biology Corp
Method: as §1

DDR2 = biological target: T11, DDR2 (Homo sapiens, UniProt Q16832)
T11 construct: purchased Reaction Biology Corp
Method: as §1

EPHB2 = biological target: T12, EPHB2 (Homo sapiens, UniProt P29323)
T12 construct: purchased Reaction Biology Corp
Method: as §1

FER = biological target: T13, FER (Homo sapiens, UniProt P16591)
T13 construct: purchased Reaction Biology Corp
Method: as §1

GSK3b = biological target: T14, GSK3b (Homo sapiens, UniProt P49841)
T14 construct: purchased Reaction Biology Corp
Method: as §1

ITK = biological target: T15, ITK (Homo sapiens, UniProt Q08881)
T15 construct: purchased Reaction Biology Corp
Method: as §1

JAK2 = biological target: T16, JAK2 (Homo sapiens, UniProt O60674)
T16 construct: purchased Reaction Biology Corp
Method: as §1

LCK = biological target: T17, LCK (Homo sapiens, UniProt P06239)
T17 construct: purchased Reaction Biology Corp
Method: as §1

LIMK2 = biological target: T18, LIMK2 (Homo sapiens, UniProt P53671)
T18 construct: purchased Reaction Biology Corp
Method: as §1

LOK = biological target: T19, LOK (Homo sapiens, UniProt O94804)
T19 construct: purchased Reaction Biology Corp
Method: as §1

MAK = biological target: T20, MAK (Homo sapiens, UniProt P20794)
T20 construct: purchased Reaction Biology Corp
Method: as §1

MAP3K3 = biological target: T21, MAP3K3 (Homo sapiens, UniProt Q99759)
T21 construct: purchased Reaction Biology Corp
Method: as §1

MARK2 = biological target: T22, MARK2 (Homo sapiens, UniProt Q7KZI7)
T22 construct: purchased Reaction Biology Corp
Method: as §1

MARK3 = biological target: T23, MARK3 (Homo sapiens, UniProt P27448)
T23 construct: purchased Reaction Biology Corp
Method: as §1

MRCKa = biological target: T24, MRCKa (Homo sapiens, UniProt Q5VT25)
T24 construct: purchased Reaction Biology Corp
Method: as §1

NDR1 = biological target: T25, NDR1 (Homo sapiens, UniProt Q15208)
T25 construct: purchased Reaction Biology Corp
Method: as §1

P38-beta = biological target: T26, P38-beta (Homo sapiens, UniProt Q15759)
T26 construct: purchased Reaction Biology Corp
Method: as §1

PASK = biological target: T27, PASK (Homo sapiens, UniProt Q96RG2)
T27 construct: purchased Reaction Biology Corp
Method: as §1

PKA = biological target: T28, PKA (Homo sapiens, UniProt P17612)
T28 construct: purchased Reaction Biology Corp
Method: as §1

PKCzeta = biological target: T29, PKCzeta (Homo sapiens, UniProt Q05513)
T29 construct: purchased Reaction Biology Corp
Method: as §1

PLK4 = biological target: T30, PLK4 (Homo sapiens, UniProt O00444)
T30 construct: purchased Reaction Biology Corp
Method: as §1

PRKCE = biological target: T31, PRKCE (Homo sapiens, UniProt Q02156)
T31 construct: purchased Reaction Biology Corp
Method: as §1

PRKCG = biological target: T32, PRKCG (Homo sapiens, UniProt P05129)
T32 construct: purchased Reaction Biology Corp
Method: as §1

[1] = biological target: T33, RPS6KA4(Kin.Dom.1-N-term) (Homo sapiens, UniProt O75676)
T33 construct: RPS6KA4(Kin.Dom.1-N-term); purchased Reaction Biology Corp
Method: as §1

RSK3 = biological target: T34, RSK3 (Homo sapiens, UniProt Q15349)
T34 construct: purchased Reaction Biology Corp
Method: as §1

SNARK = biological target: T35, SNARK (Homo sapiens, UniProt Q9H093)
T35 construct: purchased Reaction Biology Corp
Method: as §1

SRPK2 = biological target: T36, SRPK2 (Homo sapiens, UniProt P78362)
T36 construct: purchased Reaction Biology Corp
Method: as §1

STK16 = biological target: T37, STK16 (Homo sapiens, UniProt O75716)
T37 construct: purchased Reaction Biology Corp
Method: as §1

TAOK2 = biological target: T38, TAOK2 (Homo sapiens, UniProt Q9UL54)
T38 construct: purchased Reaction Biology Corp
Method: as §1

TGFBR2 = biological target: T39, TGFBR2 (Homo sapiens, UniProt P37173)
T39 construct: purchased Reaction Biology Corp
Method: as §1

TTBK2 = biological target: T40, TTBK2 (Homo sapiens, UniProt Q6IQ55)
T40 construct: purchased Reaction Biology Corp
Method: as §1

ULK1 = biological target: T41, ULK1 (Homo sapiens, UniProt O75385)
T41 construct: purchased Reaction Biology Corp
Method: as §1

ULK2 = biological target: T42, ULK2 (Homo sapiens, UniProt Q8IYT8)
T42 construct: purchased Reaction Biology Corp
Method: as §1

ZAK = biological target: T43, ZAK (Homo sapiens, UniProt Q9NYL2)
T43 construct: purchased Reaction Biology Corp
Method: as §1

T20 sequence (P20794 whole entry): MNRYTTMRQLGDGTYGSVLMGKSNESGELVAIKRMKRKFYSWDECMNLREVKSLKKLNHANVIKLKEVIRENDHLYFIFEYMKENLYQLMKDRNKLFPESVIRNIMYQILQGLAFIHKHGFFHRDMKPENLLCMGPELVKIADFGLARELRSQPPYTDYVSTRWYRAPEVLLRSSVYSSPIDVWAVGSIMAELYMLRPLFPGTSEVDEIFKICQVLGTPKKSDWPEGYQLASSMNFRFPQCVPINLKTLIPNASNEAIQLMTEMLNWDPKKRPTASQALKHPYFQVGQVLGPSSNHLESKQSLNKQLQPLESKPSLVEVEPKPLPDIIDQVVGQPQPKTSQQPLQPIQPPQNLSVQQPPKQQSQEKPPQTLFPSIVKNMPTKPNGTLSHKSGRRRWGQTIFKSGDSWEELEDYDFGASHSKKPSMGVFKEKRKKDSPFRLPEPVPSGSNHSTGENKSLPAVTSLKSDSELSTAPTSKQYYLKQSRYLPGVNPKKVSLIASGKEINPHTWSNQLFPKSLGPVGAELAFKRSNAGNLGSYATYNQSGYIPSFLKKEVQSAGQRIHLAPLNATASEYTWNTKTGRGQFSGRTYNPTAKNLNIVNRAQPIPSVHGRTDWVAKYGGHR
T12 sequence (P29323 19-1055): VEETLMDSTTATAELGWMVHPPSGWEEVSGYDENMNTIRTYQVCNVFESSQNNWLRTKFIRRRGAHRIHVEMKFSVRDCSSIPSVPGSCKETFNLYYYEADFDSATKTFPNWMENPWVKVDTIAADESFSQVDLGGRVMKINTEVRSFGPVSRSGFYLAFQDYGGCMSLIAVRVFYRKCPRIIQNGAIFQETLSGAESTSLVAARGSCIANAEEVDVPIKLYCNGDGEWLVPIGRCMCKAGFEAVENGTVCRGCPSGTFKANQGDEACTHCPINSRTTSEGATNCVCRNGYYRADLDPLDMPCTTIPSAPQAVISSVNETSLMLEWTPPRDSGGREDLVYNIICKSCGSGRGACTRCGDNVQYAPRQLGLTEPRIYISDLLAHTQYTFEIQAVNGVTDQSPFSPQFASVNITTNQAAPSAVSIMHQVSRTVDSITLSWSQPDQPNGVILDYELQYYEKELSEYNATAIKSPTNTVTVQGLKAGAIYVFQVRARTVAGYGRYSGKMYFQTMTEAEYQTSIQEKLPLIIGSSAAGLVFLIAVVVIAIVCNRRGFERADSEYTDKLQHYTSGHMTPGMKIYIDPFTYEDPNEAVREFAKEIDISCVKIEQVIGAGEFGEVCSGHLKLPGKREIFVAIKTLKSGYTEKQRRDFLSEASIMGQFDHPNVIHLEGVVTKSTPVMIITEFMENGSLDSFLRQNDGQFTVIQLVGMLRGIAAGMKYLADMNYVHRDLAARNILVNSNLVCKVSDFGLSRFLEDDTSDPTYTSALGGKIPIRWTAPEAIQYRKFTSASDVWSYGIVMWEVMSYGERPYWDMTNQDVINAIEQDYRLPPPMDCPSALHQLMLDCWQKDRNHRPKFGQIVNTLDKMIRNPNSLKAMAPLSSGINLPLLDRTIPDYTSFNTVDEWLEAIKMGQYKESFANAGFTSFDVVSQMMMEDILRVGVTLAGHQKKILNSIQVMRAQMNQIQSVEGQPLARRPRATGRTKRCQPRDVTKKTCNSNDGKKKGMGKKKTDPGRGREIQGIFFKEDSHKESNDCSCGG
T5 sequence (P06493 whole entry): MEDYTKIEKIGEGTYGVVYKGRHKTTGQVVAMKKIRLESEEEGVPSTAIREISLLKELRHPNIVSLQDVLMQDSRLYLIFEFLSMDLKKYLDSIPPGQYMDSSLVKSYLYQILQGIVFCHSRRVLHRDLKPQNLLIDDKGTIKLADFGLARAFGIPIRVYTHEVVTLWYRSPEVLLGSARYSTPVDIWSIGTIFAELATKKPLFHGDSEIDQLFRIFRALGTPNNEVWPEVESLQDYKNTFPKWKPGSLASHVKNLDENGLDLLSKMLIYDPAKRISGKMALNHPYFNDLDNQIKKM
T5 sequence (P14635 whole entry partner): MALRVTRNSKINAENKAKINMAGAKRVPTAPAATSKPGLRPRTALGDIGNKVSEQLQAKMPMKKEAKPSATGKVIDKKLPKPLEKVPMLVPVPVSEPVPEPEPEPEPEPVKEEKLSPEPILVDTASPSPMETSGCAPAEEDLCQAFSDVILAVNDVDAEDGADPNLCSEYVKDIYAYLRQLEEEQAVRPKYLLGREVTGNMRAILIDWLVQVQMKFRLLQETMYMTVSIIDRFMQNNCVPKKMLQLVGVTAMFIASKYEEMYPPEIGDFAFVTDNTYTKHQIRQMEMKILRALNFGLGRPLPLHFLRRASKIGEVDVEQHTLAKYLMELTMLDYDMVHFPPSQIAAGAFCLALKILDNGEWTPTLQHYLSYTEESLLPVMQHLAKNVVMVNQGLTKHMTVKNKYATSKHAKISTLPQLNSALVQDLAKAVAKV
T24 sequence (Q5VT25 whole entry): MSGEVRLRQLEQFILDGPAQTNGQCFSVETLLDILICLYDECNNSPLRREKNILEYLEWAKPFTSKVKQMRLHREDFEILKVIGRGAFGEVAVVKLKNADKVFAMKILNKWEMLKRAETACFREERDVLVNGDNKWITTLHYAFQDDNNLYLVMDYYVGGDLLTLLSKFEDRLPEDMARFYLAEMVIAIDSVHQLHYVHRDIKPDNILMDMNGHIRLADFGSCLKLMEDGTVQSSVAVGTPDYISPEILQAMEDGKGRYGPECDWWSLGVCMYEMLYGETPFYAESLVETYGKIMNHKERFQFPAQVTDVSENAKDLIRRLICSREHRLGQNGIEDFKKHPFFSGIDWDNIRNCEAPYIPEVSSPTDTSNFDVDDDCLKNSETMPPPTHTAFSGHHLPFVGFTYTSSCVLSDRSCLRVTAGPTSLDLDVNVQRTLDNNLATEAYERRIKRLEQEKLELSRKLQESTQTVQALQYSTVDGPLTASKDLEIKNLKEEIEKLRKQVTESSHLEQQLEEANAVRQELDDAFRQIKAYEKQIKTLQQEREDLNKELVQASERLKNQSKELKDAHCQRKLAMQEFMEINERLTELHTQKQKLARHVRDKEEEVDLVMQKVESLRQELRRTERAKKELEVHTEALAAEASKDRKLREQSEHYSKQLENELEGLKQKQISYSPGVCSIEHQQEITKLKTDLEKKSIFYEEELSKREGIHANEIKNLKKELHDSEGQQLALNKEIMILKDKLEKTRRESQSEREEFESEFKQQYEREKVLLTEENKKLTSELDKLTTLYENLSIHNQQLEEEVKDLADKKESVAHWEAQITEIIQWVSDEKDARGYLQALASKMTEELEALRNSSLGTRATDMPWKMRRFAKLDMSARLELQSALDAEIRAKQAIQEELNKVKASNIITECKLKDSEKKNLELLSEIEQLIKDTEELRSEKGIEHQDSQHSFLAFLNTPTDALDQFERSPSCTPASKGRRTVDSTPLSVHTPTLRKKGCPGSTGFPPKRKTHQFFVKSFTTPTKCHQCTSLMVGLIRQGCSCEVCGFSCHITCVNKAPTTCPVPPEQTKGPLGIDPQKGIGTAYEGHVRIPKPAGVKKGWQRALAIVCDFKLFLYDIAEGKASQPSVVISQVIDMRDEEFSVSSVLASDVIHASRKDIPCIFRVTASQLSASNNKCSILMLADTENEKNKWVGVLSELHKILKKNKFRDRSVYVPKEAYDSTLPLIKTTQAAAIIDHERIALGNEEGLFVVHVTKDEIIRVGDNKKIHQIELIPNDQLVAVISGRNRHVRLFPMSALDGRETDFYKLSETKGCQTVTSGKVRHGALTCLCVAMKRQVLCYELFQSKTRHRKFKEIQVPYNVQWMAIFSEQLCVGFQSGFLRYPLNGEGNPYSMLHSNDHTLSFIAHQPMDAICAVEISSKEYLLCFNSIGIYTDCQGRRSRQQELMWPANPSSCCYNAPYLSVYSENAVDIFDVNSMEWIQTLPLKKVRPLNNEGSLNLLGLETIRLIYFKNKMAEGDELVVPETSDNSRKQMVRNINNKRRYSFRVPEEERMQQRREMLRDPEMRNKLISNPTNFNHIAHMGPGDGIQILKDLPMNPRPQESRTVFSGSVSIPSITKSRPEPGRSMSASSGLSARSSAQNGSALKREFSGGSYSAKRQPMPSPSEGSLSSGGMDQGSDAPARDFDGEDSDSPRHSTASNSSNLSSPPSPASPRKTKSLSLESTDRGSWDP
T34 sequence (Q15349 whole entry): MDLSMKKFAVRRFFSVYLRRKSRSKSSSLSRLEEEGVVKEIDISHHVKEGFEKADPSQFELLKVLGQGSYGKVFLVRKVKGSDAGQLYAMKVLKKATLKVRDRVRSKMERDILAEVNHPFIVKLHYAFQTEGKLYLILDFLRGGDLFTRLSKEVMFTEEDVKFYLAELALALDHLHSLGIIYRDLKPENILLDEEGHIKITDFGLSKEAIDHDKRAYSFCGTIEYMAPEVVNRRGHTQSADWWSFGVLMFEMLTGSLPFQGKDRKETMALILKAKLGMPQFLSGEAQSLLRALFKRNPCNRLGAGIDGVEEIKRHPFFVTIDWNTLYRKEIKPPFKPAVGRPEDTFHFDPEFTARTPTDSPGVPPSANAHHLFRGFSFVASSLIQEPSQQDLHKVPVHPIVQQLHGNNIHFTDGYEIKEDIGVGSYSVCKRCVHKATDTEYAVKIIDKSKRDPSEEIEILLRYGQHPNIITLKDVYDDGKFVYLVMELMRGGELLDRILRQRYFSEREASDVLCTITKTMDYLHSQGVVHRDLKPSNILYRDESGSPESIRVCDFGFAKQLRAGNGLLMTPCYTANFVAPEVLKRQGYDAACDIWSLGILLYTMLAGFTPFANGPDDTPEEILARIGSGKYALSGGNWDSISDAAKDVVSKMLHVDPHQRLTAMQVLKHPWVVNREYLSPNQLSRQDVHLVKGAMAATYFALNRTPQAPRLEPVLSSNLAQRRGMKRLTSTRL

Q: For `CCn1cnc2c(NCc3ccc(-c4ccccn4)nc3)nc(-c3ccc(N)nc3)nc21` [Compound 30d, N-([2,2′-Bipyridin]-5-ylmethyl)-2-(6-aminopyridin-3-yl)-9-ethyl-9H-purin-6-amine], which remaining activity at 10 µM (ACK1) is on record?
A: 13.7%

Q: And the remaining activity at 10 µM (ACVR1)?
A: 118%

Q: And the remaining activity at 10 µM (BMPR1A)?
A: 126%

Q: And the remaining activity at 10 µM (BTK)?
A: 103%

Q: And the inhibition at 10 µM (CDK1/cyclinB)?
A: > 95%

Q: And the remaining activity at 10 µM (CDK1/cyclinB)?
A: 2.1%

Q: And the remaining activity at 10 µM (CHEK2)?
A: 7.4%

Q: And the remaining activity at 10 µM (CLK3)?
A: 94.6%

Q: And the remaining activity at 10 µM (CSK)?
A: 54.8%

Q: What about the remaining activity at 10 µM (CSNK2A1) of the same compound?
A: 84.2%

Q: What about the remaining activity at 10 µM (DDR1) of the same compound?
A: 50.2%

Q: And the remaining activity at 10 µM (DDR2)?
A: 87.2%

Q: And the inhibition at 10 µM (EPHB2)?
A: > 95%

Q: And the remaining activity at 10 µM (EPHB2)?
A: 2.5%

Q: And the remaining activity at 10 µM (FER)?
A: 52.3%

Q: What about the remaining activity at 10 µM (GSK3b) of the same compound?
A: 5.8%

Q: And the remaining activity at 10 µM (ITK)?
A: 81.7%

Q: What about the remaining activity at 10 µM (JAK2) of the same compound?
A: 87%

Q: What about the remaining activity at 10 µM (LCK) of the same compound?
A: 83.6%

Q: And the remaining activity at 10 µM (LIMK2)?
A: 76.5%

Q: What about the remaining activity at 10 µM (LOK) of the same compound?
A: 41.4%

Q: And the inhibition at 10 µM (MAK)?
A: > 95%

Q: What about the remaining activity at 10 µM (MAK) of the same compound?
A: 3.3%

Q: And the remaining activity at 10 µM (MAP3K3)?
A: 94%

Q: And the remaining activity at 10 µM (MARK2)?
A: 74.3%

Q: What about the remaining activity at 10 µM (MARK3) of the same compound?
A: 83.1%

Q: And the remaining activity at 10 µM (MRCKa)?
A: 96.6%

Q: What about the remaining activity at 10 µM (NDR1) of the same compound?
A: 28.3%

Q: And the remaining activity at 10 µM (P38-beta)?
A: 64.7%

Q: And the remaining activity at 10 µM (PASK)?
A: 96.3%

Q: What about the remaining activity at 10 µM (PKA) of the same compound?
A: 93.1%

Q: What about the remaining activity at 10 µM (PKCzeta) of the same compound?
A: 90.2%

Q: What about the remaining activity at 10 µM (PLK4) of the same compound?
A: 83.4%

Q: What about the remaining activity at 10 µM (PRKCE) of the same compound?
A: 94.1%

Q: What about the remaining activity at 10 µM (PRKCG) of the same compound?
A: 49.6%

Q: What about the remaining activity at 10 µM [1] of the same compound?
A: 115%

Q: What about the remaining activity at 10 µM (RSK3) of the same compound?
A: 58.1%

Q: What about the remaining activity at 10 µM (SNARK) of the same compound?
A: 59%

Q: What about the remaining activity at 10 µM (SRPK2) of the same compound?
A: 60.7%

Q: What about the remaining activity at 10 µM (STK16) of the same compound?
A: 35.9%

Q: What about the remaining activity at 10 µM (TAOK2) of the same compound?
A: 23.8%

Q: And the remaining activity at 10 µM (TGFBR2)?
A: 94.5%

Q: And the remaining activity at 10 µM (TTBK2)?
A: 97.3%

Q: And the remaining activity at 10 µM (ULK1)?
A: 70.3%

Q: And the remaining activity at 10 µM (ULK2)?
A: 87.3%

Q: What about the remaining activity at 10 µM (ZAK) of the same compound?
A: 97.5%
